melting point [°C]	Compound
192.3 to 193.3	COc1ccc(-c2cc(CO)nn2-c2ccc(S(N)(=O)=O)cc2)cc1I [Example 5, 4-[3-(Hydroxymethyl)-5-(3-iodo-4-methoxyphenyl)-1H-pyrazol-1-yl]benzenesulfonamide]
184.2 to 188.4	COc1ccc(-c2cc(C(F)F)nn2-c2ccc(S(N)(=O)=O)cc2)cc1I [Example 6, 4-[3-(Difluoromethyl)-5-(3-iodo-4-methoxyphenyl)-1H-pyrazol-1-yl]benzenesulfonamide]
183.1 to 185.6	COc1ccc(-c2cc(C(F)(F)F)nn2-c2ccc(S(N)(=O)=O)cc2)cc1I [Example 7, 4-[5-(3-Iodo-4-methoxyphenyl)-3-trifluoromethyl-1H-pyrazol-1-yl]benzenesulfonamide]
